Reference: PMC3272276 (The Journal of Organic Chemistry, 2010)

Tested on: Candida albicans
Test: Antifungal activity
Format: cell-based

Substance	inhibition of growth of Candida albicans (in words)
theonellamide A	antifungal activity of the extracts was traced to the known peptide theonellamide A
mutremdamide A	None of the koshikamides or mutremdamide A inhibited the growth
